{"source": "paper PMC7366380", "about": "“Discovery of a Potent and Selective Covalent Inhibitor and Activity-Based Probe for the Deubiquitylating Enzyme UCHL1, with Antifibrotic Activity” (Journal of the American Chemical Society, 2020)", "key": {"UCHL3": {"target": "T1, UCHL3 (Homo sapiens, UniProt P15374)", "T1 sequence (P15374 1-230)": "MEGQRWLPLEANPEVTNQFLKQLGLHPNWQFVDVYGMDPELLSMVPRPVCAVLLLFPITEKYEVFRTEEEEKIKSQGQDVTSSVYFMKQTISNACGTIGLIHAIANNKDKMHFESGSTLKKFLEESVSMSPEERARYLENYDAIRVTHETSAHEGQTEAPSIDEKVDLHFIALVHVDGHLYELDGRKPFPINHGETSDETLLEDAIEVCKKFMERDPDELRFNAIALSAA", "test": "In-cell proteome-wide competitive ABPP, HEK293: UCHL3", "conditions": "replicates A-C; for Log2 reporter intensity values: UCHL3: competition with ABP 2, DMSO substract (FC); for Log2 reporter intensity values: UCHL3, DMSO subtracted"}, "USP30": {"target": "T2, USP30 (Homo sapiens, UniProt Q70CQ3)", "T2 sequence (Q70CQ3 1-517)": "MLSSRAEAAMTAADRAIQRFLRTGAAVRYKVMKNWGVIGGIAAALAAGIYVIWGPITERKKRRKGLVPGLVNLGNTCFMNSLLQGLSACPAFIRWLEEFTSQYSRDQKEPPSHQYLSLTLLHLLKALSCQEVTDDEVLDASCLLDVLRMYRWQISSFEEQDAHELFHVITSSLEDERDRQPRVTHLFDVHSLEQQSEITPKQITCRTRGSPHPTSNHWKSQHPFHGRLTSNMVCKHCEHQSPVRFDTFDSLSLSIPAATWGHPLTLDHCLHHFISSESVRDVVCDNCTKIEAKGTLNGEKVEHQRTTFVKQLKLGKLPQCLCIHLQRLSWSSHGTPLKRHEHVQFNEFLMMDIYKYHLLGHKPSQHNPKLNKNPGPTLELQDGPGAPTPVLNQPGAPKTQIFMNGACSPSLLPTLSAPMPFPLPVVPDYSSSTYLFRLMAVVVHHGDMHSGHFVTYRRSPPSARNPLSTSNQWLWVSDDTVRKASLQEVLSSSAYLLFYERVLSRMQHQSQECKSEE", "test": "biochemical"}, "USP4": {"target": "T3, USP4 (Homo sapiens, UniProt Q13107)", "T3 sequence (Q13107 1-963)": "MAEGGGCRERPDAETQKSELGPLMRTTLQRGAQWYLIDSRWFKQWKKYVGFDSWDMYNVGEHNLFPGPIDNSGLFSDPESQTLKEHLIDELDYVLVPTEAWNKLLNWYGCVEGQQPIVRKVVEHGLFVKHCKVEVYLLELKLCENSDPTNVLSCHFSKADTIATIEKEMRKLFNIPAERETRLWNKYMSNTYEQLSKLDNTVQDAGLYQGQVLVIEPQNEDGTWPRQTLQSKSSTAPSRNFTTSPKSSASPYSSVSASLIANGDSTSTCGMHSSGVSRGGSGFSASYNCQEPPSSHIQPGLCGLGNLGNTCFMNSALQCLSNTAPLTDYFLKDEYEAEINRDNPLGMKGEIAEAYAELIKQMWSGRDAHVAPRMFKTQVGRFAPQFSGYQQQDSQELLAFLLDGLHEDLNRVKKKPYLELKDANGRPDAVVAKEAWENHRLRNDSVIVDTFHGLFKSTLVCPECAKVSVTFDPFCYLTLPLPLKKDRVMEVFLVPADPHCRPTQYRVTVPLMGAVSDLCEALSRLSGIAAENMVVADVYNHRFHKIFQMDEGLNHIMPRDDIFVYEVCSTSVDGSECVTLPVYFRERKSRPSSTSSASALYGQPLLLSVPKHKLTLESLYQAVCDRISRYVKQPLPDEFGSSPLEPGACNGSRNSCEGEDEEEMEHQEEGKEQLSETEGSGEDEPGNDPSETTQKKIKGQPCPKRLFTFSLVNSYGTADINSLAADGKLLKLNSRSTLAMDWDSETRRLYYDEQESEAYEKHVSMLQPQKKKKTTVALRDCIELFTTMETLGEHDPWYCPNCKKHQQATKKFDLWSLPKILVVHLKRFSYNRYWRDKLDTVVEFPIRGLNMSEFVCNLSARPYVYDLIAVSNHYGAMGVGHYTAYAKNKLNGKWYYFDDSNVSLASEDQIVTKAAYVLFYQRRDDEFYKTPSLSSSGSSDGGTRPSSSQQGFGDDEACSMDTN", "test": "Biochemical DUB selectivity profiling assay: USP4", "conditions": "Ub-Lys-TAMRA 50 nM, buffer A; read-out: Biochemical IC50 range, USP4", "procedure": "DUB Assay Substrate Substrate\nBuffer Concentration (nM) […]\nSepharose® 4B resin (GE Healthcare).\n10 kDa molecular weight cut-off (MWCO)).\nFractions containing protein\nProtein concentration was […]\nreaction volume of 21 μL. […]\ncompound (final concentration 5 nM).\nIC50 values were determined\nBiochemical DUB selectivity profiling assays […]\nin 40 µL total reaction volume."}, "[1]": {"target": "T4, DUBs and other proteins in HEK293 cells (Homo sapiens, UniProt Q53GS9)", "T4 sequence (Q53GS9 1-565)": "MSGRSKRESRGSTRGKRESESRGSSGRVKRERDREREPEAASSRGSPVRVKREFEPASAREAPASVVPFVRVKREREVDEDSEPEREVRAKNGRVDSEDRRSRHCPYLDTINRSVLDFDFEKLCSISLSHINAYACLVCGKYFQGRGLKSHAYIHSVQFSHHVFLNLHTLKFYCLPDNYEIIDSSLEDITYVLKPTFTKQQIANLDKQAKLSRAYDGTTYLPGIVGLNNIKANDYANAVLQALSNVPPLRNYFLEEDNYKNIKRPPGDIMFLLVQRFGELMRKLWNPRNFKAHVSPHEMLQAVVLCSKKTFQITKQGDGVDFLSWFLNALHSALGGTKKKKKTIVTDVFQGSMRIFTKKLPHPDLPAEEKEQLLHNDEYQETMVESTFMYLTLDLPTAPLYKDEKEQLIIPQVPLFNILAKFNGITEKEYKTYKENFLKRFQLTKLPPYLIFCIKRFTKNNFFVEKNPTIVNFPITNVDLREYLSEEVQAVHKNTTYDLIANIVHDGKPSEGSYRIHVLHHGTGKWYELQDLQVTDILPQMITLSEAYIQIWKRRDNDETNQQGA", "test": "In-cell proteome-wide competitive ABPP, HEK293: other DUBs and proteins", "conditions": "replicates A-C; for Log2 reporter intensity values: USP39: competition with ABP 2, DMSO substract (FC); for Log2 reporter intensity values: USP39, DMSO subtracted"}, "[2]": {"target": "DUBs and other proteins in HEK293 cells (Homo sapiens, UniProt Q9UPU5)", "sequence (Q9UPU5 whole entry)": "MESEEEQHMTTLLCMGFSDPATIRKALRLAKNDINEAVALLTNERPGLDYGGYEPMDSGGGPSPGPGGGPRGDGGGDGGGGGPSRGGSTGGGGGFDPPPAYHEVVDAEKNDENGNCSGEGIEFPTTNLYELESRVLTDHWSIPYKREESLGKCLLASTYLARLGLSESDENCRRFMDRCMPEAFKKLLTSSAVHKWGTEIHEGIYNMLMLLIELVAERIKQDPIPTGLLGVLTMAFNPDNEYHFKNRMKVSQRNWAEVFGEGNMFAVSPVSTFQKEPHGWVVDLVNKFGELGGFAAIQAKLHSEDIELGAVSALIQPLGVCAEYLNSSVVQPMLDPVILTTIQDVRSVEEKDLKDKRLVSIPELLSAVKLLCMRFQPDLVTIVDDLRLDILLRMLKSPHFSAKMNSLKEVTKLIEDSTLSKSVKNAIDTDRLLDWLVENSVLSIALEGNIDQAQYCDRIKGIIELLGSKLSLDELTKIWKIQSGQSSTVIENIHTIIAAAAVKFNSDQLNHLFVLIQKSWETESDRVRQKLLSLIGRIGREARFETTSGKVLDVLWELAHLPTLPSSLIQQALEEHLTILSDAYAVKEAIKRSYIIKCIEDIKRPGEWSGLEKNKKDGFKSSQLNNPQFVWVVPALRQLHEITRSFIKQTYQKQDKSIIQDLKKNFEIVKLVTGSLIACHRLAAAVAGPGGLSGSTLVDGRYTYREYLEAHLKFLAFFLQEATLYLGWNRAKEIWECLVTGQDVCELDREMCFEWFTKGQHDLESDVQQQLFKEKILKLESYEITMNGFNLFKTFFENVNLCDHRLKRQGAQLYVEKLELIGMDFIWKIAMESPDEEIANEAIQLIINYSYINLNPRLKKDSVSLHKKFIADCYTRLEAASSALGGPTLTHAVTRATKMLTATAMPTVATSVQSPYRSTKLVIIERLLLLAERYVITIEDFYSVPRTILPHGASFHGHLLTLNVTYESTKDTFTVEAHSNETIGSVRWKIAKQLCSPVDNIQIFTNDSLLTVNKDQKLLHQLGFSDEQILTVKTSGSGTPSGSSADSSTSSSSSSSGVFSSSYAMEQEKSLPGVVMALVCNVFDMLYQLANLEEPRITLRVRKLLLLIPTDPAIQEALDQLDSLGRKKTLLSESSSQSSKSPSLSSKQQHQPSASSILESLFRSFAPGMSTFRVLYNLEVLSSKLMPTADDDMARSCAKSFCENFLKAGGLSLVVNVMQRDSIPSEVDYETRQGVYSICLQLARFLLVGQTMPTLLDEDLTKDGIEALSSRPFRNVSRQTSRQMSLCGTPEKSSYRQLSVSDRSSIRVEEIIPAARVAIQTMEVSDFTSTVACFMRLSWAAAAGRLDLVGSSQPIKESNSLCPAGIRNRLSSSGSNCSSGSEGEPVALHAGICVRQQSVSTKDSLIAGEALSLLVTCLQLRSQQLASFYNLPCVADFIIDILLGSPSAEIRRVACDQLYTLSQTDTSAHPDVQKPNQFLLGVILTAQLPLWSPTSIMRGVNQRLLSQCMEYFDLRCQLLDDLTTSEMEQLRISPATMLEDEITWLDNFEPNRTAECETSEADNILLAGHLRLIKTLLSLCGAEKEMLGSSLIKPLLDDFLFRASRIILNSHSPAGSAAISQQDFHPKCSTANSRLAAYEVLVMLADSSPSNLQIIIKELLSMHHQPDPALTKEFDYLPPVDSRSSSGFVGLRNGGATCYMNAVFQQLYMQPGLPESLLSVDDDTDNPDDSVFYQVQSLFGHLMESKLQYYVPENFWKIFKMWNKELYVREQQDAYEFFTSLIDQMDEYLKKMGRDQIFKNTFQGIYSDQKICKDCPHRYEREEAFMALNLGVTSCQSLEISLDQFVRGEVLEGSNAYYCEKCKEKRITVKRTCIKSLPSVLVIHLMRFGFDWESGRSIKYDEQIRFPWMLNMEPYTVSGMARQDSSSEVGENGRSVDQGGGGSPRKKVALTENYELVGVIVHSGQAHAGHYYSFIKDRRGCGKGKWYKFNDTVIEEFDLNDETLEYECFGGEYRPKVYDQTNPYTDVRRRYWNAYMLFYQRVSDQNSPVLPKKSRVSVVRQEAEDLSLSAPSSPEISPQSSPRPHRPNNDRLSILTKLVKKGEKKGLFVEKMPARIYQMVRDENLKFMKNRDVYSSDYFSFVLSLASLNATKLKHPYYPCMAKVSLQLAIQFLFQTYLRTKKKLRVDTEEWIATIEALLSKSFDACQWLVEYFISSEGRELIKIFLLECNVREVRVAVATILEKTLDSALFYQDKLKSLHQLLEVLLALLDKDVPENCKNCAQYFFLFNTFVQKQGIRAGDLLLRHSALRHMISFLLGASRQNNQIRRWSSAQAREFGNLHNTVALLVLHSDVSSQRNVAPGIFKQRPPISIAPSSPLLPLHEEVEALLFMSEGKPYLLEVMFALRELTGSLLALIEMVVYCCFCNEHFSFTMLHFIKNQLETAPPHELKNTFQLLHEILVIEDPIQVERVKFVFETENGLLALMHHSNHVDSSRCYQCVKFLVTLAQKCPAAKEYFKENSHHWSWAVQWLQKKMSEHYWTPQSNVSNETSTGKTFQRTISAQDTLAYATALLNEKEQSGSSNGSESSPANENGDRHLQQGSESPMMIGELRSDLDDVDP", "test": "In-cell proteome-wide competitive ABPP, HEK293: other DUBs and proteins", "conditions": "replicates A-C; for Log2 reporter intensity values: USP24: competition with ABP 2, DMSO substract (FC); for Log2 reporter intensity values: USP24, DMSO subtracted"}}, "note": "pIC50: −log10 of the molar value. Several values for one entry are separate records, joined by “and”; a condition that tells them apart may be missing. Equal values may be shown once."}
{"compound": "N#CN1CCC[C@@H]1C(=O)N1CCc2c(-c3c[nH]c4ncccc34)cccc21", "note": "[Compound 3]", "values": [{"measurement": "Log2 reporter intensity values: UCHL3", "setting": "UCHL3; 3 at 1 μM", "result": "1.501 and 1.531 and 1.889"}, {"measurement": "Log2 reporter intensity values: UCHL3", "setting": "UCHL3; 3 at 4 μM", "result": "1.509 and 1.358 and 1.681"}, {"measurement": "Log2 reporter intensity values", "setting": "UCHL3; 3_1 μM", "result": "0.4924 and 0.5226 and 0.8806"}, {"measurement": "Log2 reporter intensity values", "setting": "UCHL3; 3_4 μM", "result": "0.5004 and 0.3501 and 0.6732"}, {"measurement": "Log2 reporter intensity values", "setting": "UCHL3; 3 at 1 μM", "result": "0.5856 and 0.6143 and 0.9175"}, {"measurement": "Log2 reporter intensity values", "setting": "UCHL3; 3 at 4 μM", "result": "0.5932 and 0.4418 and 0.7497"}, {"measurement": "pIC50", "setting": "USP30", "result": "< 5.00"}, {"measurement": "pIC50", "setting": "USP4", "result": "< 5.00"}, {"measurement": "Log2 reporter intensity values: USP39", "setting": "[1]; 3 at 1 μM", "result": "0.9789 and 0.9555 and 0.9911"}, {"measurement": "Log2 reporter intensity values: USP39", "setting": "[1]; 3 at 4 μM", "result": "0.9367 and 1.076 and 1.058"}, {"measurement": "Log2 reporter intensity values", "setting": "[1]; 3_1 μM", "result": "-0.0217 and -0.04512 and -0.009501"}, {"measurement": "Log2 reporter intensity values", "setting": "[1]; 3_4 μM", "result": "-0.06394 and 0.07549 and 0.05768"}, {"measurement": "Log2 reporter intensity values", "setting": "[1]; 3 at 1 μM", "result": "-0.03075 and -0.0657 and -0.01288"}, {"measurement": "Log2 reporter intensity values", "setting": "[1]; 3 at 4 μM", "result": "-0.09439 and 0.1058 and 0.08174"}, {"measurement": "Log2 reporter intensity values: USP24", "setting": "[2]; 3 at 1 μM", "result": "1.062 and 1.01 and 1.397"}, {"measurement": "Log2 reporter intensity values: USP24", "setting": "[2]; 3 at 4 μM", "result": "1.531 and 1.061 and 0.663"}, {"measurement": "Log2 reporter intensity values", "setting": "[2]; 3_1 μM", "result": "0.05897 and 0.007121 and 0.3935"}, {"measurement": "Log2 reporter intensity values", "setting": "[2]; 3_4 μM", "result": "0.5273 and 0.05764 and -0.3403"}, {"measurement": "Log2 reporter intensity values", "setting": "[2]; 3 at 1 μM", "result": "0.08723 and 0.01505 and 0.4822"}, {"measurement": "Log2 reporter intensity values", "setting": "[2]; 3 at 4 μM", "result": "0.6141 and 0.08543 and -0.5928"}]}
